row,Structure (SMILES),melting point
1,"CCCCCS(=O)(=O)NC(=O)CCc1cc(OCc2nnc(C)o2)nn1Cc1ccc(Cl)cc1Cl [Example 105, 3-{1-(2,4-dichlorobenzyl)-3-[(5-methyl-1,3,4-oxadiazol-2-yl)methoxy]-1H-pyrazol-5-yl}-N-(pentylsulfonyl)propanamide]",156 to 158 °C
2,"CCCCCS(=O)(=O)NC(=O)/C=C/c1cc(OCCCC)nn1Cc1ccc(C(F)(F)F)cc1Cl [Example 106, (2E)-3-{3-butoxy-1-[2-chloro-4-(trifluoromethyl)benzyl]-1H-pyrazol-5-yl}-N-(pentylsulfonyl)acrylamide]",130 to 132 °C
3,"CCCCCS(=O)(=O)NC(=O)CCc1cc(OCCCC)nn1Cc1ccc(C(F)(F)F)cc1Cl [Example 107, 3-{3-butoxy-1-[2-chloro-4-(trifluoromethyl)benzyl]-1H-pyrazol-5-yl}-N-(pentylsulfonyl)propanamide]",131 to 133 °C
4,"CCCCCS(=O)(=O)NC(=O)/C=C/c1cc(OCCOC)nn1Cc1ccc(Cl)cc1Cl [Example 109, (2E)-3-[1-(2,4-dichlorobenzyl)-3-(2-methoxyethoxy)-1H-pyrazol-5-yl]-N-(pentylsulfonyl)acrylamide]",82 to 85 °C
5,"CCCCOc1cc(/C=C/S(=O)(=O)NC(=O)OC(C)(C)C)n(Cc2ccc(Cl)cc2Cl)n1 [Example 127, tert-butyl ({(E)-2-[3-butoxy-1-(2,4-dichlorobenzyl)-1H-pyrazol-5-yl]vinyl}sulfonyl)carbamate]",152 to 153 °C
6,"CCCCCC(=O)NS(=O)(=O)CCc1cc(OCCCC)nn1Cc1ccc(Cl)cc1Cl [Example 128, N-({2-[3-butoxy-1-(2,4-dichlorobenzyl)-1H-pyrazol-5-yl]ethyl}sulfonyl)hexanamide]",90 to 92 °C
7,"CCCCOC(=O)NS(=O)(=O)/C=C/c1cc(OCCCC)nn1Cc1ccc(Cl)cc1Cl [Example 130, butyl ({(E)-2-[3-butoxy-1-(2,4-dichlorobenzyl)-1H-pyrazol-5-yl]vinyl}sulfonyl)carbamate]",137 to 138 °C
8,"CCCCCC(=O)NS(=O)(=O)/C=C/c1cc(OCCCC)nn1Cc1ccc(Cl)cc1Cl [Example 131, N-({(E)-2-[3-butoxy-1-(2,4-dichlorobenzyl)-1H-pyrazol-5-yl]vinyl}sulfonyl)hexanamide]",117 to 119 °C
9,"CCCCOc1cc(CCS(=O)(=O)NC(=O)OCCC)n(Cc2ccc(Cl)cc2Cl)n1 [Example 132, propyl ({2-[3-butoxy-1-(2,4-dichlorobenzyl)-1H-pyrazol-5-yl]ethyl}sulfonyl)c arbamate]",92 to 94 °C
10,"CCCCOc1cc(CCS(=O)(=O)NC(=O)OCC(C)C)n(Cc2ccc(Cl)cc2Cl)n1 [Example 133, isobutyl ({2-[3-butoxy-1-(2,4-dichlorobenzyl)-1H-pyrazol-5-yl]ethyl}sulfonyl)carbamate]",114 to 116 °C
11,"CCCCOc1cc(CCS(=O)(=O)NC(=O)OCCOC)n(Cc2ccc(Cl)cc2Cl)n1 [Example 134, 2-methoxyethyl ({2-[3-butoxy-1-(2,4-dichlorobenzyl)-1H-pyrazol-5-yl]ethyl}sulfonyl)carbamate]",82 to 86 °C

# Further lines, results first:
row,melting point,Structure (SMILES)
1,110 to 114 °C,"COCCOc1cc(/C=C/C(=O)NS(=O)(=O)CCC(C)C)n(Cc2ccc(Cl)cc2Cl)n1 [Example 110, (2E)-3-[1-(2,4-dichlorobenzyl)-3-(2-methoxyethoxy)-1H-pyrazol-5-yl]-N-[(3-methylbutyl)sulfonyl]acrylamide]"
2,144 to 147 °C,"CCCCCS(=O)(=O)NC(=O)/C=C/c1cc(OCC2(C)COC2)nn1Cc1ccc(C(F)(F)F)cc1Cl [Example 113, (2E)-3-{1-[2-chloro-4-(trifluoromethyl)benzyl]-3-[(3-methyloxetan-3-yl)methoxy]-1H-pyrazol-5-yl}-N-(pentylsulfonyl)acrylamide]"
3,138 to 139 °C,"COCCCS(=O)(=O)NC(=O)/C=C/c1cc(OC(C)C)nn1Cc1ccc(C(F)(F)F)cc1Cl [Example 115, (2E)-3-{1-[2-chloro-4-(trifluoromethyl)benzyl]-3-isopropoxy-1H-pyrazol-5-yl}-N-[(3-methoxypropyl)sulfonyl]acrylamide]"
4,154 to 157 °C,"CCCCCS(=O)(=O)NC(=O)/C=C/c1cc(OC2CCOCC2)nn1Cc1ccc(Cl)cc1Cl [Example 116, (2E)-3-[1-(2,4-dichlorobenzyl)-3-(tetrahydro-2H-pyran-4-yloxy)-1H-pyrazol-5-yl]-N-(pentylsulfonyl)acrylamide]"
5,143 to 144 °C,"CC(C)CCS(=O)(=O)NC(=O)/C=C/c1cc(OC2CCOCC2)nn1Cc1ccc(Cl)cc1Cl [Example 117, (2E)-3-[1-(2,4-dichlorobenzyl)-3-(tetrahydro-2H-pyran-4-yloxy)-1H-pyrazol-5-yl]-N-[(3-methylbutyl)sulfonyl]acrylamide]"
6,145 to 147 °C,"CC(C)CCS(=O)(=O)NC(=O)/C=C/c1cc(C2CC2)nn1Cc1ccc(C(F)(F)F)cc1Cl [Example 118, (2E)-3-{1-[2-chloro-4-(trifluoromethyl)benzyl]-3-cyclopropyl-1H-pyrazol-5-yl}-N-[(3-methylbutyl)sulfonyl]acrylamide]"
7,137 to 138 °C,"COCCCS(=O)(=O)NC(=O)/C=C/c1cc(OCC2CC2)nn1Cc1ccc(C(F)(F)F)cc1Cl [Example 119, (2E)-3-[1-[2-chloro-4-(trifluoromethyl)benzyl]-3-(cyclopropylmethoxy)-1H-pyrazol-5-yl]-N-[(3-methoxypropyl)sulfonyl]acrylamide]"
8,152 to 154 °C,"COCCCS(=O)(=O)NC(=O)CCc1cc(OCC2CC2)nn1Cc1ccc(C(F)(F)F)cc1Cl [Example 120, 3-[1-[2-chloro-4-(trifluoromethyl)benzyl]-3-(cyclopropylmethoxy)-1H-pyrazol-5-yl]-N-[(3-methoxypropyl)sulfonyl]propanamide]"
9,136 to 137 °C,"CCCCCS(=O)(=O)NC(=O)CCc1cc(C(C)(C)C)nn1Cc1ccc(C(F)(F)F)cc1Cl [Example 122, 3-{3-tert-butyl-1-[2-chloro-4-(trifluoromethyl)benzyl]-1H-pyrazol-5-yl}-N-(pentylsulfonyl)propanamide]"
10,149 to 150 °C,"COCCCS(=O)(=O)NC(=O)CCc1cc(C(C)(C)C)nn1Cc1ccc(C(F)(F)F)cc1Cl [Example 123, 3-{3-tert-butyl-1-[2-chloro-4-(trifluoromethyl)benzyl]-1H-pyrazol-5-yl}-N-[(3-methoxypropyl)sulfonyl]propanamide]"
11,152 to 153 °C,"CC(C)Oc1cc(/C=C/S(=O)(=O)NC(=O)OC(C)(C)C)n(Cc2ccc(Cl)cc2Cl)n1 [Example 124, tert-butyl ({(E)-2-[1-(2,4-dichlorobenzyl)-3-isopropoxy-1H-pyrazol-5-yl]vinyl}sulfonyl)carbamate]"
12,73 to 75 °C,"CCCCCC(=O)NS(=O)(=O)/C=C/c1cc(OC(C)C)nn1Cc1ccc(Cl)cc1Cl [Example 125, N-({(E)-2-[1-(2,4-dichlorobenzyl)-3-isopropoxy-1H-pyrazol-5-yl]vinyl}sulfonyl)hexanamide]"
13,107 to 108 °C,"CCCCCC(=O)NS(=O)(=O)CCc1cc(OC(C)C)nn1Cc1ccc(Cl)cc1Cl [Example 126, N-({2-[1-(2,4-dichlorobenzyl)-3-isopropoxy-1H-pyrazol-5-yl]ethyl}sulfonyl)hexanamide]"

# Source: patent US20100041892A1, “Therapeutic agent for diabetes” (priority 2005, published 2010)
